# Data: patent publication US5559145A, “1,2,4-trioxane derivatives” (priority 1995, dated 1996)
# Assays:
# T. gondii [1] = assay: Activity against T. gondii within macrophages, assessed by light microscopy; format: cell-based, Toxoplasma gondii (in murine peritoneal macrophages); design: % infected cells / Mean T. gondii per infected vacuole / T. gondii per 100 cells: dose or concentration left out as unconfirmed; details: for Mean T. gondii per infected vacuole: macrophages (no drug: 4.3); for % infected cells: macrophages (no drug: 42); for T. gondii per 100 cells: macrophages (no drug: 191); for activity compared with pyrimethamine and pyrimethamine + sulfadiazine / inhibition of the intracellular growth of toxoplasma: in words, at respective IC90 values
# Method: Unelicited murine peritoneal macrophages obtained by washing the peritoneal cavities of Swiss-Webster mice with 3 ml of Hanks' Balanced Salt Solution (HBSS) (4° C.) containing 5 U ml of heparin were purified by centrifugation in Ficoll-Paque (Pharmacia) 500×g for 15 min, pooled and suspended in medium 199 (M199) containing 10% heat-inactivated (56° C. for 60 min) fetal calf serum (FCS). An amount of […] was seeded into each well of 96-well dishes (Costar) and allowed to adhere during 2-3 h at 37° C. in an 5% CO2 -95% air atmosphere. The nonadherent cells were removed by washing twice with prewarmed HBSS and challenged with 3 ×10 tachyzoites of the RG strain of […] in M199-3% FCS for 1 h. After washing twice with HBSS, the infected monolayers received the test drugs (Compounds 1 to 10 of Table 1) at various concentrations in M199-10% FCS. The monolayers were then pulsed with […] of [3H]uracil (Amersham) during a period of 18 h. The acid-precipitable radioactivity on each well was counted by using a filtration procedure and the IC90 was calculated by probit analysis.
# 2×10^6 of the macrophage cells were seeded into each chamber of four-chamber glass slides (Lab-Tek). After removing nonadherent cells with HBSS, the monolayers were infected with 2×10^6 T. gondii for 1 h followed by addition of the drugs with the media over 18 h. Monolayers were fixed with 0.4% 9-aminoacridine (50% ethanol-water vol/vol), Giemsa-stained, and assessed by light microscopy. The results are shown in the following Table 6, including results of control compounds: […]
# T. gondii [2] = assay: Activity against T. gondii within HeLa cells, assessed by light microscopy; format: cell-based, Toxoplasma gondii (in HeLa (ATCC CCL2) cells); details: for Mean T. gondii per infected vacuole: HeLa (no drug: 8.1); for % infected cells: HeLa (no drug: 49); for T. gondii per 100 cells: HeLa (no drug: 620); for block of parasite growth: in words, HeLa cells
# Method: Confluent epithelium-like HeLa (ATCC CCL2) cell monolayers growing on 6-well plastic multidish (9.6 cm^2, Nunc, Roskilde, Denmark) were used. After washing with HBSS, the monolayers were infected with 3×10^6 ml^-1 T. gondii in M199-3% FCS (total amount per well, 3 ml) for 1 h, washed twice with HBSS, and the drugs were added with M199-10% FCS over 22 h. Monolayers were then fixed, Giemsa-stained and-assessed by light microscopy.
# Onchocerca gutturosa [3] = assay: Activity against Onchocerca gutturosa assessed by motility (parasites, medium, serum, cells and test drugs); format: cell-based; design: reduction of motility: concentration or dose not given beside the values; details: with cells
# Method: Testing in vitro against Onchocerca gutturosa is a valid model for activity against Onchocerca volvulus.
# (§1) Testing of test drugs (Compounds 1, 2, 3, 4, 5, 7, 8, 9, 11, and 12 of Table 1 ) against the parasitic worms Onchocerca gutturosa was carried out in accordance with the method described in J Helminth (1987) 60, 271, firstly using parasites, medium, serum, cells and test drugs.
# Onchocerca gutturosa [4] = assay: Activity against Onchocerca gutturosa assessed by motility (parasites, medium and drug); format: cell-based; details: for motility / effect on worm motility: without cells; for effect on worm motility: in words
# Method: as §1
# Secondly, test drugs (Compounds 2, 3, 4, 7,. 8, 9 and 12 of Table 1) were tested using parasites, medium and drug. […] Under these conditions, commercial anti-helminthic drugs and artemisinin also cut motility by some 30-40%.
# [5] = system: in vitro mitogenic assay; mixed lymphocyte reaction; assay: Immunomodulatory activity (in vitro mitogenic assay; mixed lymphocyte reaction); format: cell-based; details: in words
# Method: Several of the compounds mentioned in Examples 1 to 17 were also tested for immunomodulatory activity (in vitro mitogenic assay; mixed lymphocyte reaction).
# Onchocerca gutturosa [6] = assay: Activity against Onchocerca gutturosa, tetrazolium colorimetric test (parasites, medium, cells and test drug); format: cell-based; details: with cells; for inhibition at 50 µM: Onchocerca gutturosa, 5×10^-5 M, read-out: inhibition of formazan formation
# Method: (§2) A suitable colorimetric assay uses formation of formazan, a blue dye, from tetrazolium cation generated by 3-[…] bromide (J Helminth (1987) 60, 271). Firstly, Compounds 1, 2, 4, 5, 7, 8, 9, 11 and 12, along with artemisinin and arteether were tested using parasites, medium, cells and test drug.
# Onchocerca gutturosa [7] = assay: Activity against Onchocerca gutturosa, tetrazolium colorimetric test (parasites, medium and test drugs); format: cell-based; details: without cells
# Method: as §2
# Secondly, Compounds 2, 3, 4, 7, 8, 9, and 12, artemisinin and arteether were tested using parasites, medium and test drugs.
# [8] = system: chloroquine-resistant strains of P. falciparum; details: in words; background, Science 228, 1049 (1985); cited from earlier work
# [9] = in words, 7 days, after an induction period
# [10] = in words, two to three days exposure
compound,measurement,setting,value
C1=C(c2ccccc2)C[C@@]2(c3ccccc3)OOC3(CCCC3)O[C@@H]12 (relative stereo) [Compound 1 (Table 4)],Mean T. gondii per infected vacuole,"T. gondii [1]; 6.8, 18 h",1.6
same,% infected cells,"T. gondii [1]; 6.8, 18 h",19%
same,T. gondii per 100 cells,"T. gondii [1]; 6.8, 18 h",38
same,activity compared with pyrimethamine and pyrimethamine + sulfadiazine,T. gondii [1],"comparable to that of pyrimethamine, and pyrimethamine in combination with sulfadiazine"
same,inhibition of the intracellular growth of toxoplasma,T. gondii [1],confirmed the inhibition of the intracellular growth of toxoplasma
same,Mean T. gondii per infected vacuole,"T. gondii [2]; 6.8 mg ml^-1, 22 h",1.8
same,% infected cells,"T. gondii [2]; 6.8 mg ml^-1, 22 h",23%
same,T. gondii per 100 cells,"T. gondii [2]; 6.8 mg ml^-1, 22 h",46
same,block of parasite growth,T. gondii [2],able to block parasite growth
same,reduction of motility,Onchocerca gutturosa [3]; after 7 days,100%
same,effect on worm motility,Onchocerca gutturosa [3]; [9],completely stopped morality
C1=C(c2ccccc2)C[C@@]2(c3ccccc3)OOC3(CCSCC3)O[C@@H]12 (relative stereo) [Compound 2 (Table 4)],Mean T. gondii per infected vacuole,"T. gondii [1]; 5.3, 18 h",1.2
same,% infected cells,"T. gondii [1]; 5.3, 18 h",14%
same,T. gondii per 100 cells,"T. gondii [1]; 5.3, 18 h",35
same,activity compared with pyrimethamine and pyrimethamine + sulfadiazine,T. gondii [1],"comparable to that of pyrimethamine, and pyrimethamine in combination with sulfadiazine"
same,inhibition of the intracellular growth of toxoplasma,T. gondii [1],confirmed the inhibition of the intracellular growth of toxoplasma
same,Mean T. gondii per infected vacuole,"T. gondii [2]; 5.3 mg ml^-1, 22 h",1.3
same,% infected cells,"T. gondii [2]; 5.3 mg ml^-1, 22 h",23%
same,T. gondii per 100 cells,"T. gondii [2]; 5.3 mg ml^-1, 22 h",38
same,block of parasite growth,T. gondii [2],able to block parasite growth
same,reduction of motility,Onchocerca gutturosa [3]; after 7 days,100%
same,effect on worm motility,Onchocerca gutturosa [3]; [10],markedly inhibitory
same,motility,Onchocerca gutturosa [4]; after 2-3 days,less than 1
C1=C(c2ccccc2)C[C@@]2(c3ccccc3)OOC3(CCOCC3)O[C@@H]12 (relative stereo) [Compound 3 (Table 4)],effectiveness in the motility test,"Onchocerca gutturosa [3]; in words, overall",not so effective
same,effect on worm motility,Onchocerca gutturosa [4]; after 2-3 days,performed poorly
O=C1CCC2(CC1)OO[C@]1(c3ccccc3)CC(c3ccccc3)=C[C@@H]1O2 (relative stereo) [Compound 4 (Table 4)],reduction of motility,Onchocerca gutturosa [3]; after 7 days,100%
same,effect on worm motility,"Onchocerca gutturosa [3]; in words, one day exposure",significantly effective
same,effect on worm motility,Onchocerca gutturosa [4]; after one day,immediate response
CC1(C)OO[C@]2(c3ccccc3)CC(c3ccccc3)=C[C@@H]2O1 (relative stereo) [Compound 5 (Table 4)],reduction of motility,Onchocerca gutturosa [3]; after 7 days,100%
same,effect on worm motility,"Onchocerca gutturosa [3]; in words, one day exposure",significantly effective
O=C1C(c2ccccc2)=C[C@@]2(c3ccccc3)OOC3(CCCCC3)O[C@@H]12 (relative stereo) [Compound 6 (Table 4)],Mean T. gondii per infected vacuole,"T. gondii [1]; 54, 18 h",1.9
same,% infected cells,"T. gondii [1]; 54, 18 h",20%
same,T. gondii per 100 cells,"T. gondii [1]; 54, 18 h",43
same,activity compared with pyrimethamine and pyrimethamine + sulfadiazine,T. gondii [1],"comparable to that of pyrimethamine, and pyrimethamine in combination with sulfadiazine"
same,inhibition of the intracellular growth of toxoplasma,T. gondii [1],confirmed the inhibition of the intracellular growth of toxoplasma
CC1(C)OO[C@@]2(c3ccc(Cl)cc3)CC(c3ccc(Cl)cc3)=C[C@H]2O1 (relative stereo) [Compound 6],immunomodulatory activity,[5],most important activity
O[C@@H]1C(c2ccccc2)=C[C@@]2(c3ccccc3)OOC3(CCOCC3)O[C@@H]12 (relative stereo) [Compound 7 (Table 4)],reduction of motility,Onchocerca gutturosa [3]; after 7 days,100%
same,effect on worm motility,Onchocerca gutturosa [3]; [9],completely stopped morality
same,motility,Onchocerca gutturosa [4]; after 2-3 days,less than 1
O[C@@H]1C(c2ccccc2)=C[C@@]2(c3ccccc3)OOC3(CCCC3)O[C@@H]12 (relative stereo) [Compound 8 (Table 4)],reduction of motility,Onchocerca gutturosa [3]; after 7 days,100%
same,effect on worm motility,Onchocerca gutturosa [3]; [10],markedly inhibitory
same,effect on worm motility,Onchocerca gutturosa [4]; after one day,immediate response
O[C@@H]1C(c2ccccc2)=C[C@@]2(c3ccccc3)OOC3(CCCCC3)O[C@@H]12 (relative stereo) [Compound 9 (Table 4)],inhibition at 50 µM,Onchocerca gutturosa [6],> 90%
same,reduction of motility,Onchocerca gutturosa [3]; after 7 days,100%
same,effect on worm motility,"Onchocerca gutturosa [3]; in words, one day exposure",immediately immobilized worms in less than a day
same,effect on worm motility,Onchocerca gutturosa [3]; [10],markedly inhibitory
same,effect on worm motility,Onchocerca gutturosa [4]; after one day,immediate response
Cc1ccc(C2=C[C@@]3(c4ccc(C)cc4)OOC4(CCCCC4)O[C@H]3C2=O)cc1 (relative stereo) [Compound 11 (Table 4)],inhibition at 50 µM,Onchocerca gutturosa [6],> 90%
same,reduction of motility,Onchocerca gutturosa [3]; after 7 days,100%
same,effect on worm motility,"Onchocerca gutturosa [3]; in words, one day exposure",significantly effective
CC1(C)OO[C@]2(c3ccccc3)CCC(c3ccccc3)=C[C@@H]2O1 (relative stereo) [Compound 12 (Table 4)],inhibition at 50 µM,Onchocerca gutturosa [6],> 90%
same,reduction of motility,Onchocerca gutturosa [3]; after 7 days,100%
same,effect on worm motility,Onchocerca gutturosa [3]; [10],markedly inhibitory
same,motility,Onchocerca gutturosa [4]; after 2-3 days,less than 1
C1=C(c2ccccc2)C[C@]2(c3ccccc3)OOC3(CCOCC3)O[C@H]12 (relative stereo) [Compound 12],immunomodulatory activity,[5],most important activity
"CCc1nc(N)nc(N)c1-c1ccc(Cl)cc1 [P, pyrimethamine, reference compound]",Mean T. gondii per infected vacuole,"T. gondii [1]; 1, 18 h",1.2
same,% infected cells,"T. gondii [1]; 1, 18 h",14%
same,T. gondii per 100 cells,"T. gondii [1]; 1, 18 h",33
"CCO[C@H]1O[C@@H]2O[C@@]3(C)CC[C@H]4[C@H](C)CC[C@@H]([C@H]1C)[C@@]24OO3 [arteether, reference compound]",inhibition of formazan formation,Onchocerca gutturosa [6],about 40%
same,reduction of motility,"Onchocerca gutturosa [3]; after a day, 1440 min",30%
same,inhibition of formazan formation,Onchocerca gutturosa [7]; in words,ineffective
same,motility,Onchocerca gutturosa [4]; after 4 days,4
same,motility,Onchocerca gutturosa [4]; after 7 days,2
"C[C@@H]1CC[C@H]2[C@@H](C)C(=O)O[C@@H]3O[C@@]4(C)CC[C@@H]1[C@]32OO4 [artemisinin, reference compound]",inhibition of formazan formation,Onchocerca gutturosa [6]; in words,ineffective
same,activity of Qinghaosu against chloroquine-resistant strains,[8],remarkably active
same,effect on worm motility,"Onchocerca gutturosa [3]; in words, one day exposure",ineffective
same,inhibition of formazan formation,Onchocerca gutturosa [7],about 25%
same,reduction of motility,"Onchocerca gutturosa [4]; without cells (""under these conditions"")",30-40%
